Read-outs that look alike come from different tables or passages of the source.
What was measured:
Du145 = test: High-throughput calcein AM cytotoxicity assay, Du145; format: cell-based, human; details: Du145 cells
Text: (§1) Standard errors are depicted with error bars.

MCF7 = test: High-throughput calcein AM cytotoxicity assay, MCF7; format: cell-based, human; details: MCF7 cells
Text: as §1

HCT-116 = test: High-throughput calcein AM cytotoxicity assay, HCT-116; format: cell-based, human; details: HCT-116 cells
Text: as §1

Hep3B = test: High-throughput calcein AM cytotoxicity assay, Hep3B; format: cell-based, human; details: Hep 3B cells
Text: as §1

NCI-H460 = test: High-throughput calcein AM cytotoxicity assay, NCI-H460; format: cell-based, human; details: NCI-H460 cells
Text: as §1

A549 = test: High-throughput calcein AM cytotoxicity assay, A549; format: cell-based, human; details: A549 cells
Text: as §1

NCI/ADR-RES = test: cells; format: cell-based, human; details: NCI/ADR-RES cells
Summary of the method: (§2)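 Cells seeded at 10,000–15,000/well, allowed 1 h attachment at 37 °C, then exposed to compounds for 72 h over five two-fold dilutions. After a PBS wash, calcein AM was added for 30 min at 37 °C and fluorescence read at 485/535 nm. IC50 from four-parameter logistic fit, ≥6 replicates.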

SF-268 = test: cells; format: cell-based, human; details: SF-268 cells
Summary of the method: as §2

SK-OV-3 = test: cells; format: cell-based, human; details: SK-OV-3 cells
Summary of the method: as §2

NmuMG = test: cells; format: cell-based, mouse
Summary of the method: as §2

[1] = NmuMG cells (mouse mammary normal epithelial control line), read-out: IC50
[2] = NmuMG mouse mammary normal epithelial control line, read-out: IC50, NmuMG

| Molecule | IC50 (Du145; read-out: IC50) [µM] | IC50 (MCF7; read-out: IC50) [µM] | IC50 (HCT-116; read-out: IC50) [µM] | IC50 (Hep3B; read-out: IC50) [µM] | IC50 (NCI-H460; read-out: IC50) [µM] | IC50 (A549; read-out: IC50) [µM] | IC50 (NCI/ADR-RES; read-out: IC50) [µM] | IC50 (SF-268; read-out: IC50) [µM] | IC50 (SK-OV-3; read-out: IC50) [µM] | IC50 (NmuMG; [1]) [µM] | IC50 (Du145; read-out: IC50, Du145) [µM] | IC50 (MCF7; read-out: IC50, MCF7) [µM] | IC50 (HCT-116; read-out: IC50, HCT-116) [µM] | IC50 (Hep3B; read-out: IC50, Hep 3B) [µM] | IC50 (NCI-H460; read-out: IC50, NCI-H460) [µM] | IC50 (A549; read-out: IC50, A549) [µM] | IC50 (NCI/ADR-RES; read-out: IC50, NCI/ADR-RES) [µM] | IC50 (SF-268; read-out: IC50, SF-268) [µM] | IC50 (SK-OV-3; read-out: IC50, SK-OV-3) [µM] | IC50 (NmuMG; [2]) [µM] |
| --- | --- | --- | --- | --- | --- | --- | --- | --- | --- | --- | --- | --- | --- | --- | --- | --- | --- | --- | --- | --- |
| CON(C1CCC2(C)C(CCC3C2CCC2(C)C(C4=CC(=O)OC4)CCC32O)C1)C1OC(CO)C(O)C(O)C1O [42α, L-glucoside] | > 25 | > 25 | > 25 | > 25 | > 25 | > 25 | > 25 | > 25 | > 25 | > 25 |  |  |  |  |  |  |  |  |  |  |
| CON([C@H]1CC[C@@]2(C)[C@H](CC[C@@H]3[C@@H]2CC[C@]2(C)[C@@H](C4=CC(=O)OC4)CC[C@]32O)C1)[C@H]1O[C@@H](CO)[C@H](O)[C@@H](O)[C@H]1O [26β, L-mannoside] |  |  |  |  |  |  |  |  |  |  | 2 | 3 | 4.2 | 2 | 1.6 | 1.7 | 4.8 | 2.1 | 3.1 | 1.3 |
| CON(C1CCC2(C)C(CCC3C2CCC2(C)C(C4=CC(=O)OC4)CCC32O)C1)C1OC(C(=O)O)C(O)C(O)C1O [38α, D-galacturonoside] | > 25 | > 25 | > 25 | > 25 | > 25 | > 25 | > 25 | > 25 | > 25 | > 25 |  |  |  |  |  |  |  |  |  |  |
| 6-keto-D-galactoside [31α] |  |  |  |  |  |  |  |  |  | > 25 | > 25 | > 25 | > 25 | > 25 | > 25 | > 25 | > 25 | > 25 | > 25 |  |
| CON(C1CCC2(C)C(CCC3C2CCC2(C)C(C4=CC(=O)OC4)CCC32O)C1)C1OC(CO)C(O)C(O)C1O [27α, D-mannoside] |  |  |  |  |  |  |  |  |  | > 25 | > 25 | > 25 | > 25 | > 25 | > 25 | > 25 | > 25 | > 25 | > 25 |  |
| CON(C1CCC2(C)C(CCC3C2CCC2(C)C(C4=CC(=O)OC4)CCC32O)C1)C1OCC(O)C(O)C1O [15α, D-lyxoside] |  |  |  |  |  |  |  |  |  |  | > 25 | > 25 | > 25 | > 25 | > 25 | > 25 | > 25 | > 25 | > 25 | > 25 |
| CON(C1CCC2(C)C(CCC3C2CCC2(C)C(C4=CC(=O)OC4)CCC32O)C1)C1OC(C)C(O)C(O)C1O [11α, 6-deoxy-D-glucoside] |  |  |  |  |  |  |  |  |  |  | > 25 | > 25 | > 25 | > 25 | > 25 | > 25 | > 25 | > 25 | > 25 | > 25 |
| CON(C1CCC2(C)C(CCC3C2CCC2(C)C(C4=CC(=O)OC4)CCC32O)C1)C1CC(C)(O)C(O)C(C)O1 [30α, L-mycaroside] |  |  |  |  |  |  |  |  |  | > 25 | > 25 | > 25 | > 25 | > 25 | > 25 | > 25 | > 25 | > 25 | > 25 |  |
| CON(C1CCC2(C)C(CCC3C2CCC2(C)C(C4=CC(=O)OC4)CCC32O)C1)C1OC(CO)C(O)C(O)C1O [22α, D-galactoside] |  |  |  |  |  |  |  |  |  |  | > 25 | > 25 | > 25 | > 25 | > 25 | > 25 | > 25 | > 25 | > 25 | > 25 |
| CON([C@H]1CC[C@@]2(C)[C@H](CC[C@@H]3[C@@H]2CC[C@]2(C)[C@@H](C4=CC(=O)OC4)CC[C@]32O)C1)[C@@H]1O[C@H](CO)[C@@H](O)[C@@H](O)[C@@H]1O [20β, D-altroside] |  |  |  |  |  |  |  |  |  |  | 1.2 | 1.5 | 1.1 | 0.35 | 0.62 | 0.54 | 0.9 | 1.1 | 1.1 | 0.9 |
| 6-deoxy-6-azido-D-mannoside [41α] | > 25 | > 25 | > 25 | > 25 | > 25 | > 25 | > 25 | > 25 | > 25 | > 25 |  |  |  |  |  |  |  |  |  |  |
| CON(C1CCC2(C)C(CCC3C2CCC2(C)C(C4=CC(=O)OC4)CCC32O)C1)C1OC(COC2OC(CO)C(O)C(O)C2O)C(O)C(O)C1O (stereo not drawn) [35α, melibioside] | > 25 | > 25 | > 25 | > 25 | > 25 | > 25 | > 25 | > 25 | > 25 | > 25 |  |  |  |  |  |  |  |  |  |  |
| CON([C@H]1CC[C@@]2(C)[C@H](CC[C@@H]3[C@@H]2CC[C@]2(C)[C@@H](C4=CC(=O)OC4)CC[C@]32O)C1)[C@H]1OC[C@H](O)[C@@H](O)[C@H]1O [14β, L-lyxoside] |  |  |  |  |  |  |  |  |  |  | 2.4 | 4.5 | 8 | 0.6 | 5 | 0.7 | 0.73 | 1.1 | 4.2 | 0.9 |
| CON(C1CCC2(C)C(CCC3C2CCC2(C)C(C4=CC(=O)OC4)CCC32O)C1)C1OC(CO)C(O)C(O)C1O [42β, L-glucoside] |  |  |  |  |  |  |  |  |  |  | 1.3 | 0.6 | 0.9 | 0.9 | 1.3 | 0.8 | 0.55 | 1.9 | 1 | 1.2 |
| CON([C@H]1CC[C@@]2(C)[C@H](CC[C@@H]3[C@@H]2CC[C@]2(C)[C@@H](C4=CC(=O)OC4)CC[C@]32O)C1)[C@H]1O[C@@H](CO)[C@@H](O)[C@H](O)[C@H]1O [28β, L-idoside] |  |  |  |  |  |  |  |  |  |  | 1.9 | 2.6 | 3.2 | 1 | 1.3 | 1.14 | 0.61 | 2.1 | 2.4 | 1.8 |
| CON(C1CCC2(C)C(CCC3C2CCC2(C)C(C4=CC(=O)OC4)CCC32O)C1)C1OC(CO)C(O)CC1O [10α, 3-deoxy-D-glucoside] |  |  |  |  |  |  |  |  |  |  | > 25 | > 25 | > 25 | > 25 | > 25 | > 25 | > 25 | > 25 | > 25 | > 25 |
| CON([C@H]1CC[C@@]2(C)[C@H](CC[C@@H]3[C@@H]2CC[C@]2(C)[C@@H](C4=CC(=O)OC4)CC[C@]32O)C1)[C@H]1O[C@@H](C)[C@@H](O)[C@@H](O)[C@@H]1O [7β, L-fucoside] |  |  |  |  |  |  |  |  |  |  | 0.7 | 1.3 | 1.2 | 0.35 | 0.6 | 0.3 | 0.25 | 0.9 | 0.5 | > 25 |
| L-rhamnoside [16α] |  |  |  |  |  |  |  |  |  |  | > 25 | > 25 | > 25 | > 25 | > 25 | > 25 | > 25 | > 25 | > 25 | > 25 |
| CON([C@H]1CC[C@@]2(C)[C@H](CC[C@@H]3[C@@H]2CC[C@]2(C)[C@@H](C4=CC(=O)OC4)CC[C@]32O)C1)[C@H]1O[C@@H](CO)[C@H](O)[C@H](O)[C@H]1O [19β, L-altroside] |  |  |  |  |  |  |  |  |  |  | 2.1 | 1.3 | 1.1 | 2 | 1.6 | 0.76 | 0.41 | 1.2 | 1 | 1 |
| CON(C1CCC2(C)C(CCC3C2CCC2(C)C(C4=CC(=O)OC4)CCC32O)C1)C1OC(CO)C(O)C(O)C1O [17α, L-alloside] |  |  |  |  |  |  |  |  |  |  | > 25 | > 25 | > 25 | > 25 | > 25 | > 25 | > 25 | > 25 | > 25 | > 25 |
| CON(C1CCC2(C)C(CCC3C2CCC2(C)C(C4=CC(=O)OC4)CCC32O)C1)C1OC(CO)C(O)C(O)C1O [29α, D-idoside] |  |  |  |  |  |  |  |  |  | > 25 | > 25 | > 25 | > 25 | > 25 | > 25 | > 25 | > 25 | > 25 | > 25 |  |
| CON(C1CCC2(C)C(CCC3C2CCC2(C)C(C4=CC(=O)OC4)CCC32O)C1)C1OCC(O)C(O)C1O [14α, L-lyxoside] |  |  |  |  |  |  |  |  |  |  | > 25 | > 25 | > 25 | > 25 | > 25 | > 25 | > 25 | > 25 | > 25 | > 25 |
